In ChEMBL document CHEMBL4138123, “Design, synthesis and biological evaluation of novel pyrazolochalcones as potential modulators of PI3K/Akt/mTOR pathway and inducers of apoptosis in breast cancer cells” (Eur J Med Chem, 2017):

Columns and labels:
Type in all cases: functional
[1] = tested on: A549; assay: Cytotoxicity against human A549/ATCC cells assessed as cell growth at 10 uM after 48 hrs by sulforhodamine B assay relative to control; conditions: A549, 48 h, read-out: Activity
[2] = tested on: HCC 2998; assay: Cytotoxicity against human HCC2998 cells assessed as cell growth at 100 uM after 48 hrs by sulforhodamine B assay relative to control; conditions: HCC 2998, 48 h, read-out: Activity
[3] = tested on: ACHN; assay: Cytotoxicity against human ACHN cells assessed as cell growth at 100 uM after 48 hrs by sulforhodamine B assay relative to control; conditions: read-out: Activity
[4] = tested on: MCF7; assay: Cytotoxicity against human MCF7 cells assessed as cell growth at 10 uM after 48 hrs by sulforhodamine B assay relative to control; conditions: MCF7, 48 h, read-out: Activity
[5] = tested on: SK-MEL-2; assay: Cytotoxicity against human SK-MEL-2 cells assessed as growth inhibition after 48 hrs by sulforhodamine B assay; conditions: SK-MEL-2, 48 h
[6] = tested on: MDA-MB-468; assay: Cytotoxicity against human MDA-MB-468 cells assessed as growth inhibition after 48 hrs by sulforhodamine B assay; conditions: MDA-MB-468, 48 h
[7] = tested on: NCI/ADR-RES; assay: Cytotoxicity against human NCI/ADR-RES cells assessed as cell growth at 0.1 uM after 48 hrs by sulforhodamine B assay relative to control; conditions: read-out: Activity
[8] = tested on: SR; assay: Cytotoxicity against human SR cells assessed as cell growth at 0.01 uM after 48 hrs by sulforhodamine B assay relative to control; conditions: read-out: Activity
[9] = tested on: U-251; assay: Cytotoxicity against human U251 cells assessed as cell growth at 1 uM after 48 hrs by sulforhodamine B assay relative to control; conditions: U-251, 48 h, read-out: Activity
[10] = tested on: MDA-MB-468; assay: Cytotoxicity against human MDA-MB-468 cells assessed as cell growth at 0.1 uM after 48 hrs by sulforhodamine B assay relative to control; conditions: MDA-MB-468, 48 h, read-out: Activity
[11] = tested on: OVCAR-4; assay: Cytotoxicity against human OVCAR4 cells assessed as cell growth at 10 uM after 48 hrs by sulforhodamine B assay relative to control; conditions: OVCAR-4, 48 h, read-out: Activity
[12] = tested on: BT-549; assay: Cytotoxicity against human BT549 cells assessed as cell growth at 100 uM after 48 hrs by sulforhodamine B assay relative to control; conditions: BT-549, 48 h, read-out: Activity
[13] = tested on: T47D; assay: Cytotoxicity against human T47D cells assessed as cell growth at 10 uM after 48 hrs by sulforhodamine B assay relative to control; conditions: read-out: Activity
[14] = tested on: HT-29; assay: Cytotoxicity against human HT-29 cells assessed as growth inhibition after 48 hrs by sulforhodamine B assay; conditions: HT-29, 48 h
[15] = tested on: SNB-19; assay: Cytotoxicity against human SNB19 cells assessed as cell growth at 0.01 uM after 48 hrs by sulforhodamine B assay relative to control; conditions: SNB-19, 48 h, read-out: Activity
[16] = tested on: MOLT-4; assay: Cytotoxicity against human MOLT4 cells assessed as cell growth at 0.1 uM after 48 hrs by sulforhodamine B assay relative to control; conditions: MOLT-4, 48 h, read-out: Activity
[17] = tested on: NCI-H226; assay: Cytotoxicity against human NCI-H226 cells assessed as cell growth at 1 uM after 48 hrs by sulforhodamine B assay relative to control; conditions: NCI-H226, 48 h, read-out: Activity
[18] = tested on: HOP-62; assay: Cytotoxicity against human HOP62 cells assessed as cell growth at 100 uM after 48 hrs by sulforhodamine B assay relative to control; conditions: HOP-62, 48 h, read-out: Activity
[19] = tested on: PC-3; assay: Cytotoxicity against human PC3 cells assessed as cell growth at 100 uM after 48 hrs by sulforhodamine B assay relative to control; conditions: PC-3, 48 h, read-out: Activity
[20] = tested on: OVCAR-5; assay: Cytotoxicity against human OVCAR5 cells assessed as cell growth at 0.1 uM after 48 hrs by sulforhodamine B assay relative to control; conditions: OVCAR-5, 48 h, read-out: Activity
[21] = tested on: Hs-578T; assay: Cytotoxicity against human Hs 578T cells assessed as cell growth at 100 uM after 48 hrs by sulforhodamine B assay relative to control; conditions: read-out: Activity
[22] = tested on: NCI-H522; assay: Cytotoxicity against human NCI-H522 cells assessed as cell growth at 100 uM after 48 hrs by sulforhodamine B assay relative to control; conditions: NCI-H522, 48 h, read-out: Activity
[23] = tested on: RXF 393; assay: Cytotoxicity against human RXF393 cells assessed as cell growth at 0.01 uM after 48 hrs by sulforhodamine B assay relative to control; conditions: RXF 393, 48 h, read-out: Activity
[24] = tested on: OVCAR-4; assay: Cytotoxicity against human OVCAR4 cells assessed as cell growth at 0.1 uM after 48 hrs by sulforhodamine B assay relative to control; conditions: OVCAR-4, 48 h, read-out: Activity
[25] = tested on: SK-MEL-5; assay: Cytotoxicity against human SK-MEL-5 cells assessed as cell growth at 10 uM after 48 hrs by sulforhodamine B assay relative to control; conditions: SK-MEL-5, 48 h, read-out: Activity
[26] = tested on: A498; assay: Cytotoxicity against human A498 cells assessed as growth inhibition after 48 hrs by sulforhodamine B assay; conditions: A498, 48 h
[27] = tested on: BT-549; assay: Cytotoxicity against human BT549 cells assessed as growth inhibition after 48 hrs by sulforhodamine B assay; conditions: BT-549, 48 h
[28] = tested on: ACHN; assay: Cytotoxicity against human ACHN cells assessed as cell growth at 0.1 uM after 48 hrs by sulforhodamine B assay relative to control; conditions: read-out: Activity
[29] = tested on: A549; assay: Cytotoxicity against human A549/ATCC cells assessed as cell growth at 100 uM after 48 hrs by sulforhodamine B assay relative to control; conditions: A549, 48 h, read-out: Activity
[30] = tested on: Malme-3M; assay: Cytotoxicity against human MALME-3M cells assessed as cell growth at 10 uM after 48 hrs by sulforhodamine B assay relative to control; conditions: read-out: Activity
[31] = tested on: T47D; assay: Cytotoxicity against human T47D cells assessed as cell growth at 100 uM after 48 hrs by sulforhodamine B assay relative to control; conditions: read-out: Activity
[32] = tested on: NCI-H522; assay: Cytotoxicity against human NCI-H522 cells assessed as growth inhibition after 48 hrs by sulforhodamine B assay; conditions: NCI-H522, 48 h
[33] = tested on: NCI-H460; assay: Cytotoxicity against human NCI-H460 cells assessed as cell growth at 0.01 uM after 48 hrs by sulforhodamine B assay relative to control; conditions: NCI-H460, 48 h, read-out: Activity
[34] = tested on: NCI-H226; assay: Cytotoxicity against human NCI-H226 cells assessed as cell growth at 0.1 uM after 48 hrs by sulforhodamine B assay relative to control; conditions: NCI-H226, 48 h, read-out: Activity
[35] = tested on: ACHN; assay: Cytotoxicity against human ACHN cells assessed as cell growth at 1 uM after 48 hrs by sulforhodamine B assay relative to control; conditions: read-out: Activity
[36] = tested on: BT-549; assay: Cytotoxicity against human BT549 cells assessed as cell growth at 1 uM after 48 hrs by sulforhodamine B assay relative to control; conditions: BT-549, 48 h, read-out: Activity

For `COc1cc(-c2cc(/C=C/C(=O)c3ccc(Cl)c(Cl)c3)[nH]n2)cc(OC)c1OC`, which growth at 10 µM [1] is on record?
Its growth at 10 µM is 68%.

What about the growth at 100 µM [2] of the same compound?
The growth at 100 µM was -50%.

What about the growth at 100 µM [3] of the same compound?
Its growth at 100 µM is 16%.

What about the growth at 10 µM [4] of the same compound?
Its growth at 10 µM is 15%.

And the LC50 (concentration killing 50% of cells) [5]?
Its LC50 (concentration killing 50% of cells) is 83.8 µM.

What about the TGI [5] of the same compound?
The TGI was 34.1 µM.

And the GI50 [6]?
Its GI50 is 1.98 µM.

What about the LC50 [6] of the same compound?
Its LC50 is > 100 µM.

And the TGI [6]?
The TGI was 7.22 µM.

And the growth at 0.1 µM [7]?
The growth at 0.1 µM was 96%.

What about the growth at 0.01 µM [8] of the same compound?
Its growth at 0.01 µM is 104%.

And the growth at 1 µM [9]?
Its growth at 1 µM is 87%.

And the growth at 0.1 µM [10]?
The growth at 0.1 µM was 91%.

What about the growth at 10 µM [11] of the same compound?
The growth at 10 µM was 52%.

What about the growth at 100 µM [12] of the same compound?
The growth at 100 µM was -53%.

What about the growth at 10 µM [13] of the same compound?
The growth at 10 µM was 9%.

And the LC50 [14]?
Its LC50 is > 100 µM.

And the TGI [14]?
Its TGI is > 100 µM.

And the growth at 0.01 µM [15]?
The growth at 0.01 µM was 100%.

What about the growth at 0.1 µM [16] of the same compound?
Its growth at 0.1 µM is 102%.

And the growth at 1 µM [17]?
Its growth at 1 µM is 96%.

And the growth at 100 µM [18]?
The growth at 100 µM was -74%.

What about the growth at 100 µM [19] of the same compound?
Its growth at 100 µM is 10%.

What about the growth at 0.1 µM [20] of the same compound?
Its growth at 0.1 µM is 99%.

What about the growth at 100 µM [21] of the same compound?
Its growth at 100 µM is 3%.

What about the growth at 100 µM [22] of the same compound?
The growth at 100 µM was -65%.

And the growth at 0.01 µM [23]?
Its growth at 0.01 µM is 96%.

And the growth at 0.1 µM [24]?
The growth at 0.1 µM was 106%.

And the growth at 10 µM [25]?
The growth at 10 µM was 62%.

What about the LC50 [26] of the same compound?
The LC50 was > 100 µM.

What about the TGI [26] of the same compound?
Its TGI is 43 µM.

What about the LC50 (concentration killing 50% of cells) [27] of the same compound?
Its LC50 (concentration killing 50% of cells) is 92.6 µM.

And the TGI [27]?
The TGI was 29.3 µM.

And the growth at 0.1 µM [28]?
The growth at 0.1 µM was 105%.

What about the growth at 100 µM [29] of the same compound?
Its growth at 100 µM is 2%.

And the growth at 10 µM [30]?
The growth at 10 µM was 72%.

What about the growth at 100 µM [31] of the same compound?
The growth at 100 µM was -36%.

What about the LC50 [32] of the same compound?
The LC50 was 6.97 µM.

What about the TGI [32] of the same compound?
The TGI was 3.04 µM.

What about the growth at 0.01 µM [33] of the same compound?
Its growth at 0.01 µM is 105%.

What about the growth at 0.1 µM [34] of the same compound?
The growth at 0.1 µM was 103%.

What about the growth at 1 µM [35] of the same compound?
The growth at 1 µM was 101%.

And the growth at 1 µM [36]?
The growth at 1 µM was 92%.
